From patent US10894808B2, “Polypeptide ligands specific for plasma kallikrein” (BicycleRD Limited, priority 2013, dated 2021) come the findings set out here.

The target of test [1] is T1, biotinylated human plasma kallikrein (Homo sapiens, UniProt P03952).
T1 construct: The human kallikrein is non-recombinant and therefore the heavy chain is present; purchased Innovative Research, Novi, Mich., USA IHPKA; host or cells: from human plasma
Put plainly: Homogeneous plate-based screening assay of TBMB-cyclised phage clones (signal:background). It counts as binding. The protocol:
Assay of binding of individual clones: Library transformant colonies were picked at random and grown as individual cultures in 2TY broth containing selective antibiotic. The picked colonies were DNA-sequenced using a QIAgen PyroMark Q96 DNA sequencer to reveal the amino-acid substitution present in each clone. Where isolated, a clone of each unique substitution was assayed for human plasma kallikrein binding as follows. The phage-containing supernatant was harvested from the culture and phage were cyclised with tris bromomethyl benzene (TBMB) based on the methods of Heinis et al (Nature Chemical Biology vol. 5 pp 502-507 (2009)). The purified phage from this process were assayed for binding to biotinylated human plasma kallikrein using a homogeneous plate-based binding assay; assay read-out measured on a BMG Labtech Pherastar FS plate reader. The quantitative binding data from triplicate assay samples was averaged (mean) and expressed as signal:background (where background was a sample assayed with no target material). The signal:background was expressed as a % of the parallel parent sample. Error bars denote standard deviation of the mean. Assays shown are representative of at least 2 independent experiments. The assay data was correlated with the peptide sequences. Substitutions marked in grey were not tested (a clone was not isolated from the random library sampling). A sample of a non-binding (arbitrary) bicycle was assayed in parallel to illustrate the assay baseline.
Assay of binding of individual clones: Library transformant colonies, or selection output colonies, were picked and grown as individual cultures in 2TY broth containing selective antibiotic. The picked colonies were DNA-sequenced using a QIAgen PyroMark Q96 DNA sequencer to reveal the amino-acid substitution present in each clone, and were assayed for human plasma kallikrein binding as follows. The phage-containing supernatant was harvested from the culture and phage were cyclised with tris-bromomethylbenzene (TBMB) based on the methods of Heinis et al (Nature Chemical Biology vol. 5 pp 502-507 (2009)). The purified phage from this process were assayed for binding to biotinylated human plasma kallikrein using a homogeneous plate-based binding assay; assay read-out measured on a BMG Labtech Pherastar FS plate reader. The quantitative binding data from duplicate assay samples was averaged (mean) and expressed as signal:background. Assay data shown is representative of at least 2 independent experiments. The assay data was correlated with the peptide sequences.

A further test has as its target T2, human plasma kallikrein (Homo sapiens, UniProt P03952).
T2 construct: purchased Stratech, UK
Put plainly: Functional enzyme assay, inhibition of human plasma kallikrein (Z-PheArg-AMC substrate). Type of test: biochemical. Here is the method:
(§1) Functional enzyme assays were conducted in 10 mM Tris HCl, 150 mM NaCl, 10 mM MgCl2, 1 mM CaCl2 and 1 mg/mL BSA (all Sigma UK) pH 7.4 at 25° C. in solid black 96 or 384 well plates. […] Release of AMC was measured using a Pherastar FS (BMG Labtech), excitation 360 nm, emission 460 nm. The rate of the linear phase of the reaction, typically 5 to 45 minutes, was calculated in MARS data analysis software (BMG labtech). The rate was then used to calculate the IC50 and Ki in Prism (GraphPad). A four parameter inhibition non-linear regression equation was used to calculate the IC50. […]
(§2) Peptides were dissolved as the TFA-salts in their powder form, and stock solutions were usually prepared in water. All solutions were centrifuged and filtered ([…] syringe filters) prior to absorption measurement at 280 nm. Extinction coefficients were calculated based on the Trp/Tyr content of the peptide, and that of TMB (the TMB core, when contained in a peptide, has an extinction coefficient of ˜300 M^−1 cm^−1).

The target in a further test is rabbit kallikrein (Oryctolagus cuniculus, UniProt G1T127). Briefly: Functional enzyme assay, inhibition of rabbit kallikrein. Type of test: biochemical. The protocol:
as §1, §2

For another test, the target named is T3, rat plasma kallikrein (Rattus norvegicus, UniProt P14272).
T3 construct: polyhistidine tag followed by proTEV cleavage site (pro-peptide) (N, cleaved yes); made in house; host or cells: HEK-293 (suspension-adapted), pEXPR-IBA42 vector
Briefly: Functional enzyme assay, inhibition of rat plasma kallikrein (Z-PheArg-AMC substrate). Conditions: Table 1, synthetic peptides; read-out: Rat (Ki). Type of test: biochemical. The protocol:
as §1, §2

[2] abbreviates: Table 3, 06-254 affinity-matured library.
Setting [3] is: Table 1, synthetic peptides, read-out: Human (Ki).

Like-named read-outs stand apart in the source and are kept apart here. *1 amine or outer side, *2 acyl side, *3 side chain or, on linkers, in order; H or OH if unused. Where a SMILES comes first, the peptide text is derived from it. Bridges are numbered along the chain shown (N, C = ends). [ ]: non-standard residue; d: D form. TBMB = c1c(C[*:1])cc(C[*:3])cc1C[*:2]; hArg = N=C(N)NCCCC[C@H](N)C(=O)O; Aze = O=C(O)[C@@H]1CCN1; Sar = CNCC(=O)O

Chain of rabbit kallikrein (G1T127 20-629): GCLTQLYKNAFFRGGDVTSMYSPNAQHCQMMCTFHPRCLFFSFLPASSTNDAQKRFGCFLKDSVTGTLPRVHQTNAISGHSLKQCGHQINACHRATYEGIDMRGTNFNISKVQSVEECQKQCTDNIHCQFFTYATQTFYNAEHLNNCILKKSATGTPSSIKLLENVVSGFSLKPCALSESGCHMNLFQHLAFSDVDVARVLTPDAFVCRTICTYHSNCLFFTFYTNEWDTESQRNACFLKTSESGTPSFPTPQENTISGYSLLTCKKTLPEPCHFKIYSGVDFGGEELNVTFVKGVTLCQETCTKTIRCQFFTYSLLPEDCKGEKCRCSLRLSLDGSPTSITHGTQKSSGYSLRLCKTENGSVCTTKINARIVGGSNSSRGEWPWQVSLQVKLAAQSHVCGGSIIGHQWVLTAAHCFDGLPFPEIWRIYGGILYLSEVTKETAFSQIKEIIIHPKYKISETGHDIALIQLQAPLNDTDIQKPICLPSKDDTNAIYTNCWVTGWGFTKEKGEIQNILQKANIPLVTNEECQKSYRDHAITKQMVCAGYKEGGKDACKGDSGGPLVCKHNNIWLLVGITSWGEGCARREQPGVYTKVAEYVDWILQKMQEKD
T1 sequence (P03952 391-638 limits assumed): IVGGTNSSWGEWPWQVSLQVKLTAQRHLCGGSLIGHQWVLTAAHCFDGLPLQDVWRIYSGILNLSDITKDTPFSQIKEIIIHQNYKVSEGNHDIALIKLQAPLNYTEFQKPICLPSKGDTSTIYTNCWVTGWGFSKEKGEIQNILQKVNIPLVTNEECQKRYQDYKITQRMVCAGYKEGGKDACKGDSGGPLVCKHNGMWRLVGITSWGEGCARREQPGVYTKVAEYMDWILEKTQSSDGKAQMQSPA
T1 sequence (P03952 20-390 partner limits assumed): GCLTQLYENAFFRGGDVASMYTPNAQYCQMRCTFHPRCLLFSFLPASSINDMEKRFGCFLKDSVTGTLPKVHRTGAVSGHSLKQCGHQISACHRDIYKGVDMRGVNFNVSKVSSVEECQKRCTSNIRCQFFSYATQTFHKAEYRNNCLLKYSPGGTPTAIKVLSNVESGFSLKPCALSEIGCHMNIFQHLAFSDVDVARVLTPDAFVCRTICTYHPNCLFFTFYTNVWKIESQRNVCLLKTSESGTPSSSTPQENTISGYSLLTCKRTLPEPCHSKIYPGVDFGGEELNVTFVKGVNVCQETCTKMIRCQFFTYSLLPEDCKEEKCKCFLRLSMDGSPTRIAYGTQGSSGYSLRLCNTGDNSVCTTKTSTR
T2 sequence (P03952 391-638 limits assumed): as the sequence (P03952 391-638 limits assumed) above
T2 sequence (P03952 20-390 partner limits assumed): as the sequence (P03952 20-390 partner limits assumed) above
T3 sequence (P14272 391-638 limits assumed): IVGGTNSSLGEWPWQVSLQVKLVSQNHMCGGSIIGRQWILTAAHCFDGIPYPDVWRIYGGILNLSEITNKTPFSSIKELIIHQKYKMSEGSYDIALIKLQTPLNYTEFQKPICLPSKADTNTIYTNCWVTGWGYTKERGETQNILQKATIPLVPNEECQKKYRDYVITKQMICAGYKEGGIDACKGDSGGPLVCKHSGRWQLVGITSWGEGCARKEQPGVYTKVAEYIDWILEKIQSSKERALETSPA

`CC[C@H](C)[C@@H]1NC(=O)[C@H](CC(C)C)NC(=O)[C@H](CC(=O)O)NC(=O)[C@@H]2CSCc3cc(cc(c3)CSC[C@@H](C(=O)N[C@@H](C)C(N)=O)NC(=O)[C@H]([C@@H](C)O)NC(=O)[C@H]([C@@H](C)O)NC(=O)[C@H](CCC(=O)O)NC1=O)CSC[C@H](NC(=O)[C@H](C)N)C(=O)N[C@@H](CCCCN)C(=O)N[C@@H](CC(N)=O)C(=O)N[C@@H](Cc1ccc(O)cc1)C(=O)N[C@@H](Cc1c[nH]c3ccccc13)C(=O)N[C@@H](CC(N)=O)C(=O)N1CCC[C@H]1C(=O)N2` [06-254-01] (H-ACKNYWNPCDLIETTCA-NH2; linker 2-9-16 via TBMB; N-terminus and C-terminus assumed): the “S:B (Signal:Background)” value in test [1] (setting [2]) turned out to be 61.90.
For the compound `CC[C@H](C)[C@@H]1NC(=O)[C@H](CC(C)C)NC(=O)[C@H](CC(=O)O)NC(=O)[C@@H]2CSCc3cc(cc(c3)CSC[C@@H](C(=O)N[C@@H](C)C(N)=O)NC(=O)[C@@H]3CCCN3C(=O)CNC(=O)[C@@H]3CCCN3C1=O)CSC[C@H](NC(=O)[C@H](C)N)C(=O)N[C@@H](CCCCN)C(=O)N[C@@H](CC(N)=O)C(=O)N[C@@H](Cc1ccc(O)cc1)C(=O)N[C@@H](Cc1c[nH]c3ccccc13)C(=O)N[C@@H](CC(N)=O)C(=O)N1CCC[C@H]1C(=O)N2` [06-254-02] (H-ACKNYWNPCDLIPGPCA-NH2; linker 2-9-16 via TBMB; N-terminus assumed), the “S:B (Signal:Background)” value in test [1] (setting [2]) is recorded as 46.65. Besides, the Ki (in general, a measure of affinity in units of concentration, obtained from inhibition or displacement) on human plasma kallikrein (Table 5, read-out: Human (Ki)) is 0.0005 µM.
The like results for `CSCC[C@@H]1NC(=O)[C@H](C(C)C)NC(=O)[C@H](CC(C)C)NC(=O)[C@H](CC(=O)O)NC(=O)[C@@H]2CSCc3cc(cc(c3)CSC[C@@H](C(=O)N[C@@H](C)C(N)=O)NC(=O)[C@H]([C@@H](C)O)NC(=O)[C@H](CC(=O)O)NC1=O)CSC[C@H](NC(=O)[C@H](C)N)C(=O)N[C@@H](CCCCN)C(=O)N[C@@H](CC(N)=O)C(=O)N[C@@H](Cc1ccc(O)cc1)C(=O)N[C@@H](Cc1c[nH]c3ccccc13)C(=O)N[C@@H](CC(N)=O)C(=O)N1CCC[C@H]1C(=O)N2` [06-254-03] (H-ACKNYWNPCDLVMDTCA-NH2; linker 2-9-16 via TBMB; N-terminus and C-terminus assumed) were, in that order, 56.70 and 0.0014 µM.
As to `CC(C)[C@@H]1NC(=O)[C@H](CCCNC(=N)N)NC(=O)[C@@H]2CSCc3cc(cc(c3)CSC[C@@H](C(=O)N[C@@H](C)C(N)=O)NC(=O)[C@H](Cc3ccc(O)cc3)NC(=O)[C@H](CCCNC(=N)N)NC(=O)[C@H]([C@@H](C)O)NC(=O)[C@H](CC(=O)O)NC1=O)CSC[C@H](NC(=O)[C@H](C)N)C(=O)N[C@@H](CCC(N)=O)C(=O)N[C@@H](CCCCN)C(=O)N[C@@H](Cc1ccccc1)C(=O)N[C@@H](CCC(=O)O)C(=O)N[C@@H](CO)C(=O)N[C@@H](CCCNC(=N)N)C(=O)N2` [06-256] (H-ACQKFESRCRVDTRYCA-NH2; linker 2-9-16 via TBMB; N-terminus assumed), the Ki at rabbit kallikrein (Table 1, synthetic peptides, read-out: Rabbit (Ki)) amounted to 1.46 µM; at rabbit kallikrein (Table 5, read-out: Rabbit (Ki)) it was 1.46 µM; at human plasma kallikrein (setting [3]) it was 0.0066 µM; at rat plasma kallikrein, 2.78 µM.
`CSCC[C@@H]1NC(=O)[C@H](CCCNC(=N)N)NC(=O)[C@H](CCCNC(=N)N)NC(=O)[C@H](Cc2ccc(O)cc2)NC(=O)[C@@H]2CSCc3cc(cc(c3)CSC[C@H](NC(=O)[C@H](C)N)C(=O)N3CCC[C@H]3C(=O)N[C@@H](CC(C)C)C(=O)N[C@@H](CO)C(=O)N[C@@H](CC(=O)O)C(=O)N[C@@H]([C@@H](C)O)C(=O)N[C@@H](CC(C)C)C(=O)N2)CSC[C@@H](C(=O)N[C@@H](C)C(N)=O)NC(=O)[C@@H]2CCCN2C(=O)[C@@H]2CCCN2C1=O` [06-257] (H-ACPLSDTLCYRRMPPCA-NH2; linker 2-9-16 via TBMB; N-terminus assumed): the results for the Ki on human plasma kallikrein (setting [3]) and on rat plasma kallikrein were 0.0361 µM and 0.159 µM, respectively.
As for `CC(C)[C@@H]1NC(=O)[C@H](CO)NC(=O)[C@@H]2CSCc3cc(cc(c3)CSC[C@@H](C(=O)N[C@@H](C)C(N)=O)NC(=O)[C@H](C(C)C)NC(=O)[C@@H]3CCCN3C(=O)[C@@H]3CCCN3C(=O)[C@H](CCC(=O)O)NC1=O)CSC[C@H](NC(=O)[C@H](C)N)C(=O)N[C@@H](CC(N)=O)C(=O)N[C@@H](Cc1c[nH]cn1)C(=O)N[C@@H](Cc1c[nH]c3ccccc13)C(=O)N[C@@H](CC(N)=O)C(=O)N1CCC[C@H]1C(=O)N[C@@H](Cc1c[nH]c3ccccc13)C(=O)N2` [06-259-01] (H-ACNHWNPWCSVEPPVCA-NH2; linker 2-9-16 via TBMB; N-terminus assumed), the “S:B (Signal:Background)” value in test [1] (Table 4, 06-259 affinity-matured library) is on record as 51.67.
For `CC(C)C[C@@H]1NC(=O)[C@@H]2CCCN2C(=O)[C@H](C)NC(=O)[C@H](CC(=O)O)NC(=O)[C@H](Cc2c[nH]c3ccccc23)NC(=O)[C@@H]2CCCN2C(=O)[C@@H]2CSCc3cc(cc(c3)CSC[C@@H](C(=O)N[C@@H](C)C(N)=O)NC1=O)CSC[C@H](NC(=O)[C@H](C)N)C(=O)N[C@@H](CC(N)=O)C(=O)N[C@@H](Cc1ccc(O)cc1)C(=O)N[C@@H](Cc1c[nH]c3ccccc13)C(=O)N[C@@H](CC(N)=O)C(=O)N1CCC[C@H]1C(=O)N[C@@H](Cc1c[nH]c3ccccc13)C(=O)N2` [06-259-04] (H-ACNYWNPWCPWDAPLCA-NH2; linker 2-9-16 via TBMB; N-terminus assumed), the Ki at human plasma kallikrein (Table 5, read-out: Human (Ki)) amounted to 0.0034 µM.
At human plasma kallikrein, `CC[C@H](C)[C@@H]1NC(=O)[C@H](CC(C)C)NC(=O)[C@H]([C@@H](C)O)NC(=O)[C@@H]2CSCc3cc(cc(c3)CSC[C@@H](C(=O)N[C@@H](C)C(=O)N(C)CC(=O)N(C)CC(=O)N(C)CC(=O)N[C@H](CCCNC(=N)N)C(=O)N[C@H](CCCNC(=N)N)C(N)=O)NC(=O)[C@H]([C@@H](C)O)NC(=O)[C@H]([C@@H](C)CC)NC(=O)[C@H](CC(N)=O)NC1=O)CSC[C@H](NC(C)=O)C(=O)N[C@@H](CCCNC(=N)N)C(=O)N[C@@H](CC(N)=O)C(=O)N[C@@H](Cc1ccc(O)cc1)C(=O)N[C@@H](Cc1c[nH]c3ccccc13)C(=O)N[C@@H](CC(N)=O)C(=O)N1CCC[C@H]1C(=O)N2` [Ac-(06-255)-Sar3-(DArg2)] (Ac-CRNYWNPCTLINITCA[Sar][Sar][Sar][dR][dR]-NH2; linker 1-8-15 via TBMB) registered a Ki of 0.0012 µM.
On to `CC[C@H](C)[C@@H]1NC(=O)[C@H](CC(C)C)NC(=O)[C@H]([C@@H](C)O)NC(=O)[C@@H]2CSCc3cc(cc(c3)CSC[C@H](NC(C)=O)C(=O)N[C@@H](CCCNC(=N)N)C(=O)N[C@@H](CC(N)=O)C(=O)N[C@@H](Cc3ccc(O)cc3)C(=O)N[C@@H](Cc3c[nH]c4ccccc34)C(=O)N[C@@H](CC(N)=O)C(=O)N3CCC[C@H]3C(=O)N2)CSC[C@@H](C(N)=O)NC(=O)[C@H]([C@@H](C)O)NC(=O)[C@H]([C@@H](C)CC)NC(=O)[C@H](CC(N)=O)NC1=O` [Ac-(06-255)] (Ac-CRNYWNPCTLINITC-NH2; linker 1-8-15 via TBMB; C-terminus assumed), for which the Ki on rabbit kallikrein was 0.342 µM.
The compound `CC[C@H](C)[C@@H]1NC(=O)[C@H](CC(=O)O)NC(=O)[C@@H]2CCCN2C(=O)[C@H](Cc2ccc(O)cc2)NC(=O)[C@H](Cc2ccc(O)cc2)NC(=O)[C@H](C(C)C)NC(=O)[C@@H]2CSCc3cc(cc(c3)CSC[C@H](NC(C)=O)C(=O)N[C@@H](CO)C(=O)N[C@@H](Cc3ccccc3)C(=O)N3CC[C@H]3C(=O)N[C@@H](Cc3ccc(O)cc3)C(=O)N[C@@H](CCCCNC(=N)N)C(=O)N2)CSC[C@@H](C(N)=O)NC1=O` [Ac-(06-550) Aze3 HArg5] (Ac-CSF[Aze]Y[hArg]CVYYPDIC-NH2; linker 1-7-14 via TBMB) yielded a Ki at human plasma kallikrein of 0.0005 µM.
